In patent US12629365B2, “Pharmaceutical compositions of 5-HT6 receptor antagonist” (SUVEN LIFE SCIENCES LIMITED, priority 2016, dated 2026):

Experiment: BCS classification
Format: physicochemical
Settings: based on our experimental results

BCS classification: class I
SMILES: COc1ccc2c(c1)c(CN1CCN(C)CC1)cn2S(=O)(=O)c1ccccc1Br [Compound 1, 1-[(2-Bromophenyl)sulfonyl]-5-methoxy-3-[(4-methyl-1-piperazinyl)methyl]-1H-indole dimesylate monohydrate]
